Reference: article PMC7520419 (The AAPS Journal, 2020)
In brackets after ≈: the same amount, converted by molar mass. Counter-ions that a name gives are not always drawn. Like-named read-outs stand apart in the source and are kept apart here.

Legend:
[1] = Effective human jejunum permeability (Peff,man) used in the PBPK model; format: in vitro ADME; settings: human, 1 h
[2] = parameters: method as in Table I reference column; settings: not generated within this working group; ref Table I; cited from earlier work
[3] = cited from earlier work; for Solubility at pH 6.5: not generated within this working group, ref Table I
[4] = parameters: Food Effect (graded symbols): key to the marks not given beside the values; settings: cited from earlier work
BCS classification = format: physicochemical
Caco-2 = settings: cited from earlier work
[5] = PBPK food effect modeling (Simcyp V17.1 and/or GastroPlus V9.5; Model 1 / Model 2); parameters: species or system human
[6] = Solubility measurement in aqueous buffer solutions; settings: pH 6.5, aqueous buffer, thermodynamic from solid
Experimental: (§1) The solubility of the drug substances was determined in biorelevant media as well as in aqueous buffers at different pH. Fasted state simulated gastric fluid (FaSSGF) ([37]), fasted state simulated intestinal fluid (FaSSIF-V2) ([38]), and fed state simulated intestinal fluid (FeSSIF-V2) ([39]) were prepared according to the instructions provided by Biorelevant (Biorelevant.com Ltd., London, UK). […] For neutral compounds, solubility was determined at pH 2, pH 4, and pH 7.
(§2) For freely soluble compounds, the extent of solubilization was measured only up to 10 mg/mL.

[7] = Solubility measurement in biorelevant media (FaSSIF-V2, FeSSIF-V2); settings: 37 °C, thermodynamic from solid
Experimental: as §1, §2

physchem [8] = settings: pH 6.5, aqueous buffer, thermodynamic from solid
Experimental: as §1, §2

physchem [9] = settings: 37 °C, thermodynamic from solid
Experimental: as §1, §2

[10] = Model 2, fasted, ref published clinical data (Table I)
[11] = Model 2, fed, ref published clinical data (Table I)
[12] = micronized formulation, healthy volunteers, high-fat breakfast
[13] = not generated within this working group, ref Table I
[14] = Model 1, fasted, ref published clinical data (Table I)
[15] = Model 1, fed, ref published clinical data (Table I)
[16] = Model 1, ref published clinical data (Table I)
[17] = clinically observed PK change (AUC, Cmax) fed vs fasted, compiled by literature search
[18] = direction, AUC and/or Cmax ratio fed to fasted, BE criteria 0.8–1.25, ref drug label
[19] = Model 2, ref published clinical data (Table I)

SMILES | Effective permeability [1] | FaSSIF solubility [2] | FeSSIF solubility [2] | Solubility at pH 6.5 [3] | Observed AUC(0-inf) Fasted [4, 10] | Observed Cmax Fasted [4, 10] | Observed AUC(0-inf) Fed [4, 11] | Observed Cmax Fed [4, 11] | pKa (pKa; pKa (a, acidic)) | pKa (pKa; pKa (b, basic)) | BCS (BCS classification) | Apparent permeability (Caco-2) (Caco-2; [13]) | AUC Ratio of Ratios (Sim'd / Obs'd) ([5]; Model 1) | Cmax Ratio of Ratios (Sim'd / Obs'd) ([5]; Model 1) | Observed AUC(0-inf) Fasted [4, 14] | Observed Cmax Fasted [4, 14] | Food Effect [4, 17] | Food Effect [4, 18] | AUC Ratio of Ratios (Sim'd / Obs'd) ([5]; Model 2) | Cmax Ratio of Ratios (Sim'd / Obs'd) ([5]; Model 2) | also measured
C[C@@H](O[C@H]1OCCN(Cc2n[nH]c(=O)[nH]2)[C@H]1c1ccc(F)cc1)c1cc(C(F)(F)F)cc(C(F)(F)F)c1 [Aprepitant] | 240 ×10⁻⁶ cm/s | 5.4 µg/mL | 92.4 µg/mL | 0.7 μg/ml | 8.57 µg·h/mL | 496 ng/mL | 24.1 µg·h/mL | 1100 ng/mL | 9.15 | 2.45 | II/IV | – | – | – | – | – | – | – | – | – | solubility in US Pharmacopeia Simulated Intestinal Fluids (SIFsp) ([3]; pH 6.8): 0.7 µg/mL (≈ 1.31 µM); solubility in water ([3]; pH 8.0, thermodynamically stable form): 7 µg/mL (≈ 13.1 µM); AUC observed, fasted ([4]; 100 mg micronized): 8.571 µg·h/mL; AUC observed, fed ([4]; 100 mg micronized): 24,057 ng.h/ml; Cmax observed, fasted ([4]; 100 mg micronized): 496 ng/mL; Cmax observed, fed ([4]; 100 mg micronized): 1098 ng/mL; Food Effect ([4]; Micronized, fed vs fasted, compiled by literature search): Positive (positive if the ratio of fed > fasted); Food Effect ([4]; Nanonized, fed vs fasted, compiled by literature search): None (none if no significant change in AUC and Cmax with food); increase in AUC with food [4, 12]: 2.8 fold; increase in Cmax with food [4, 12]: 2.2 fold
CC(C)(C)c1cc(C(C)(C)C)c(NC(=O)c2c[nH]c3ccccc3c2=O)cc1O [Ivacaftor] | – | 53^^ μg/ml | 550^^ μg/ml | 0.5^^ μg/ml | – | – | – | – | 9.4 | – | II/IV | 11.9 (Caco-2)^^ × 10^−6 cm/s | 1.03 | 1.15 | 3.12 µg·h/mL | 148 ng/mL | Positive (positive if the ratio of fed > fasted) | Positive (positive if the ratio of fed > fasted) | – | – | Observed AUC(0-inf) Fed [4, 15]: 9.59 µg·h/mL; Observed Cmax Fed [4, 15]: 637 ng/mL; Observed AUC Ratios (Fed/Fasted) [4, 16]: 3.07; Observed Cmax Ratios (Fed/Fasted) [4, 16]: 4.30
Cc1ccc(Nc2nccc(N(C)c3ccc4c(C)n(C)nc4c3)n2)cc1S(N)(=O)=O [Pazopanib] | – | – | – | – | 824 µg·h/mL | 20700 ng/mL | 2020 µg·h/mL | 45200 ng/mL | – | – | II/IV | 16.9 (Caco-2)^^ × 10^−6 cm/s | 0.13 | 0.12 | 824 µg·h/mL | 20700 ng/mL | Positive (positive if the ratio of fed > fasted) | Positive (positive if the ratio of fed > fasted) | 0.24 | 0.44 | fasted bioavailability ([4]; 800 mg dose): ~ 21%; fasted bioavailability, range ([4]; 800 mg dose): 14–39%; increase in AUC0-72h with a high-fat meal ([4]; 800 mg dose): 2.3 fold; increase in Cmax with a high-fat meal ([4]; 800 mg dose): 2.1 fold; increase in AUC0-72h with a high-fat meal ([4]; 800 mg dose, listed as pazopanib): approximately 2.3 fold; Observed AUC(0-inf) Fed [4, 15]: 2020 µg·h/mL; Observed Cmax Fed [4, 15]: 45200 ng/mL; Observed AUC Ratios (Fed/Fasted) [4, 16]: 2.45; Observed Cmax Ratios (Fed/Fasted) [4, 16]: 2.19; Observed AUC Ratios (Fed/Fasted) [4, 19]: 2.45; Observed Cmax Ratios (Fed/Fasted) [4, 19]: 2.19; solubility [6]: 0.5 µg/mL (≈ 1.14 µM); solubility ([7]; FaSSIF-V2 (fasted state simulated intestinal fluid), FaSSIF solubility): 1.2 µg/mL (≈ 2.74 µM); solubility ([7]; FeSSIF-V2 (fed state simulated intestinal fluid), FeSSIF solubility): 2.8 µg/mL (≈ 6.4 µM)
Cc1c(O)cccc1C(=O)N[C@@H](CSc1ccccc1)[C@H](O)CN1C[C@H]2CCCC[C@H]2C[C@H]1C(=O)NC(C)(C)C [Nelfinavir mesylate] | 70 ×10⁻⁶ cm/s | 22^^ μg/ml | 243^^ μg/ml | 41.4^^ μg/ml | 7.08 µg·h/mL | 895 ng/mL | 35.8 µg·h/mL | 3910 ng/mL | – | 6 | II/IV | – | – | – | – | – | Positive (positive if the ratio of fed > fasted) | Positive (positive if the ratio of fed > fasted) | 0.58 | 0.66 | Observed AUC Ratios (Fed/Fasted) [4, 19]: 5.06; Observed Cmax Ratios (Fed/Fasted) [4, 19]: 4.37; food effect (FE) direction ([4]; ref drug label): positive FE
CCC[C@H](NC(=O)[C@@H]1[C@H]2CCC[C@H]2CN1C(=O)[C@@H](NC(=O)[C@@H](NC(=O)c1cnccn1)C1CCCCC1)C(C)(C)C)C(=O)C(=O)NC1CC1 [Telaprevir] | 140 ×10⁻⁶ cm/s | – | – | – | – | – | – | – | – | – | – | – | 0.42 | 0.26 | – | – | – | – | 0.66 | 0.44 | Apparent permeability (Caco-2) (Caco-2; Caco-2): 4.4 (Caco-2)^^ × 10^−6 cm/s; solubility (physchem [8]): 85 µg/mL (≈ 125 µM); Food Effect (graded symbols) ([4]; human, in vivo): +++; Observed AUC Ratios (Fed/Fasted) ([4]; human, in vivo): 3.71; Observed AUC(0-inf) Fasted ([4]; human, in vivo): 3.58 µg·h/mL; Observed AUC(0-inf) Fed ([4]; human, in vivo): 13.3 µg·h/mL; Observed Cmax Fasted ([4]; human, in vivo): 349 ng/mL; Observed Cmax Fed ([4]; human, in vivo): 2080 ng/mL; Observed Cmax Ratios (Fed/Fasted) ([4]; human, in vivo): 5.96; solubility (physchem [9]; FaSSIF solubility): 120 µg/mL (≈ 177 µM); solubility (physchem [9]; FeSSIF solubility): 80 µg/mL (≈ 118 µM)
